Source: patent US11766443B2, “Cyclopentathiophene carboxamide derivatives as platelet activating factor receptor antagonists” (Boehringer Ingelheim International GmbH, priority 2021, dated 2023)
Values after ≈ are worked out from the molar mass of the structure shown.

How the values were obtained:
[1] = aqueous solubility in buffer (from DMSO stock, 24 h shaking, LC-UV); conditions: pH 2.2, aqueous buffer, kinetic from dmso stock
Experimental: The aqueous solubility of the test compound is determined by comparing the amount dissolved in buffer to the amount in an ACN/water (1/1) solution. Starting from a 10 mM DMSO stock solution aliquots are diluted with ACN/water (1/1) or buffer, respectively. After 24 h of shaking, the solutions are filtrated and analyzed by LC-UV. The amount dissolved in buffer is compared to the amount in the ACN solution.
Solubility will usually be measured from 0.001 to 0.125 mg/mL at a DMSO concentration of 2.5%. If more than 90% of the compound is dissolved in buffer, the value is marked with “>”.

human PAFR = target: T1, human PAFR (Homo sapiens, UniProt P25105); assay: cellular HTRF IP1 endpoint assay: inhibition of PAFR activation by PAF C-16 ligand; format: cell-based; conditions: HEK293 cells overexpressing human PAFR; PAF ligand 11 nM
T1 construct: expressed in transfected cells; host or cells: HEK293
T1 sequence (P25105 whole entry): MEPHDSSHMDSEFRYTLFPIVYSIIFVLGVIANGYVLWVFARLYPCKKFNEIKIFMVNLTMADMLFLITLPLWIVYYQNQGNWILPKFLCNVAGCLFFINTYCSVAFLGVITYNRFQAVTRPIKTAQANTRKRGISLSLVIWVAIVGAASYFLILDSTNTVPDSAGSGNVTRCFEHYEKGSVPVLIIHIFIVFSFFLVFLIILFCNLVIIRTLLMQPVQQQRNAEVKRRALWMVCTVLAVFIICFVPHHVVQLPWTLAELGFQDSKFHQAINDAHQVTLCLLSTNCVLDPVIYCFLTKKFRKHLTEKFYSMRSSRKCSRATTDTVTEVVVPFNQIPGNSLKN
Experimental: The ability of compounds of formula (I.0) to inhibit the activation of the PAF receptor (PAFR) by the PAF C-16 ligand (PAF) is determined using the following cellular HTRF IP1 assay (IP1 Gq assay kit from Cisbio, Cat. no.: 62IP1APEJ) in assay buffer (1×HBSS, 20 mM Hepes, pH 7.4, 50 mM LiCl and containing 0.1% (w/v) BSA):
HEK293 cells overexpressing human PAFR (produced in-house) are seeded into a Poly-D-Lysine coated 384 well white cell culture microtiter assay plate with lid (15.000 cells per well). Subsequently, the plates are incubated over night at 37° C./5% CO2. On the next day, cells are being washed and subsequently, various concentrations of the test compounds (compounds in 100% DMSO; final concentration of DMSO in wells is 1%) are added to the assay plate via Echo 555 acoustic liquid handler. Plates are then incubated with lid for 90 minutes at 37° C./5% CO2. Thereafter, PAF ligand (Cayman Chemical Company, Item no.: 60900) is added at a final concentration of 11 nM. Plates are then incubated with lid for 60 minutes at 37° C./5% CO2. Then, 5 μl per well of Anti-IP1-Anti body-Cryptate solution and 5 μL per well of IP1-d2 solution are added to all wells of the plate and the plate is incubated for another 60 minutes light protected at room temperature. The emissions at 620 nm and 665 nm (Excitation wavelength: 320 nm) are measured using an Envision Reader (PerkinElmer).

Structure (SMILES)	solubility at 24 h [1]	IC50 (human PAFR)
Cc1nnc2n1-c1sc3c(c1[C@H](c1ccccc1Cl)NC2)C[C@H](C(=O)NCc1cccc(C(F)(F)F)n1)C3 [Example 35]	106 µg/mL (≈ 190 µM)	3.8 nM
Cc1ncc(CNC(=O)[C@@H]2Cc3sc4c(c3C2)[C@H](c2ccccc2Cl)NCc2nnc(C)n2-4)s1 [Example 47]	> 115 µg/mL	12 nM
Cc1nnc2n1-c1sc3c(c1[C@H](c1ccccc1Cl)NC2)C[C@H](C(=O)NC1(c2ccc(Cl)cn2)CC1)C3 [Example 10]	> 140 µg/mL	1.3 nM
Cc1nnc2n1-c1sc3c(c1[C@H](c1ccccc1Cl)NC2)C[C@H](C(=O)NC12CC(C1)C2)C3 [Example 51]	> 116 µg/mL	2.2 nM
Cc1nnc2n1-c1sc3c(c1C(c1ccccc1)NC2)CC(C(=O)N1CCOCC1)C3 (centres unmarked) [Example 74]	> 104 µg/mL	252 nM
Cc1nnc2n1-c1sc3c(c1[C@H](c1ccccc1Cl)NC2)C[C@H](C(=O)NCc1ccc(C(F)(F)F)cn1)C3 [Example 38]	108 µg/mL (≈ 193 µM)	1.4 nM
Cc1nnc2n1-c1sc3c(c1C(c1ccccc1O)NC2)CC(C(=O)N1CCOCC1)C3 (racemic) [Example 61, 2-[3-Methyl-13-(morpholine-4-carbonyl)-16-thia-2,4,5,8-tetraazatetracyclo[8.6.0.0^2,6.0^11,15]hexadeca-1(10),3,5,11(15)-tetraen-9-yl]phenol]	> 113 µg/mL	> 322 nM
Cc1nnc2n1-c1sc3c(c1[C@H](c1ccccc1Cl)NC2)C[C@H](C(=O)NC(C)(C)CO)C3 [Example 33]	> 139 µg/mL	2.8 nM
Cc1nnc2n1-c1sc3c(c1[C@H](c1ccccc1Cl)NC2)C[C@H](C(=O)NCc1ccc(C(F)(F)F)nc1)C3 [Example 7]	130 µg/mL (≈ 233 µM)	3.6 nM
COc1ccccc1C1NCc2nnc(C)n2-c2sc3c(c21)CC(C(=O)N1CCOCC1)C3 (centres unmarked) [Example 54, 9-(2-Methoxyphenyl)-3-methyl-13-(morpholine-4-carbonyl)-16-thia-2,4,5,8-tetraazatetracyclo[8.6.0.0^2,6.0^11,15]-hexadeca-1(10),3,5,11(15)-tetraene]	49 µg/mL (≈ 105 µM)	–
Cc1nnc2n1-c1sc3c(c1[C@H](c1ccccc1Cl)NC2)C[C@H](C(=O)NCC1CC1)C3 [Example 15]	> 113 µg/mL	1.7 nM
Cc1ccccc1[C@@H]1NCc2nnc(C)n2-c2sc3c(c21)C[C@H](C(=O)N1CCOCC1)C3 [Example 64, (9S,13S)-3-methyl-9-(2-methylphenyl)-13-(morpholine-4-carbonyl)-16-thia-2,4,5,8-tetraazatetracyclo[8.6.0.0^2,6.0^11,15]-hexadeca-1(10),3,5,11(15)-tetraene]	> 108 µg/mL	210 nM
CCc1nnc2n1-c1sc3c(c1[C@@H](c1ccccc1Cl)NC2)C[C@H](C(=O)N1CCOCC1)C3 [Example 68]	> 116 µg/mL	> 999 nM
CCCN(CCC)C(=O)[C@@H]1Cc2sc3c(c2C1)[C@@H](c1ccccc1Cl)NCc1nnc(C)n1-3 [Example 72, (9S,13S)-9-(2-Chlorophenyl)-3-methyl-N,N-dipropyl-16-thia-2,4,5,8-tetraazatetracyclo[8.6.0.0^2,6.0^11,15]hexadeca-1(10),3,5,11(15)-tetraene-13-carboxamide]	> 101 µg/mL	8.1 nM
Cc1nnc2n1-c1sc3c(c1C(c1ccccc1Cl)NC2)C[C@H](C(=O)NC(C)(C)CO)C3 (stereo partly drawn) [Example 65, (13S)-9-(2-Chlorophenyl)-N-(1-hydroxy-2-methylpropan-2-yl)-3-methyl-16-thia-2,4,5,8-tetraazatetracyclo-[8.6.0.0^2,6.0^11,15]hexadeca-1(10),3,5,11(15)-tetraene-13-carboxamide]	> 147 µg/mL	11 nM
Cc1nnc2n1-c1sc3c(c1[C@H](c1ccccc1Cl)NC2)C[C@H](C(=O)N1C[C@@H](C)O[C@@H](C)C1)C3 [Example 27]	> 133 µg/mL	5.5 nM

Structure (SMILES)	solubility at 24 h [1]	IC50 (human PAFR)
Cc1nnc2n1-c1sc3c(c1[C@H](c1ccccc1)NC2)C[C@H](C(=O)N1CCOCC1)C3 [Example 76]	–	140 nM
Cc1nnc2n1-c1sc3c(c1[C@@H](c1ccccc1Cl)NC2)C[C@H](C(=O)NCCOC(F)(F)F)C3 [Example 8]	> 121 µg/mL	55 nM
CCc1nnc2n1-c1sc3c(c1[C@@H](c1ccccc1Cl)NC2)C[C@@H](C(=O)N1CCOCC1)C3 [Example 71]	–	> 999 nM
Cc1ccccc1[C@H]1NCc2nnc(C)n2-c2sc3c(c21)C[C@H](C(=O)N1CCOCC1)C3 [Example 63, (9R,13S)-3-Methyl-9-(2-methylphenyl)-13-(morpholine-4-carbonyl)-16-thia-2,4,5,8-tetraazatetracyclo[8.6.0.0^2,6.0^11,15]-hexadeca-1(10),3,5,11(15)-tetraene]	> 110 µg/mL	–
Cc1nnc2n1-c1sc3c(c1[C@H](c1ccccc1Cl)NC2)C[C@H](C(=O)NCc1cncc(C(F)(F)F)c1)C3 [Example 43]	104 µg/mL (≈ 186 µM)	2.6 nM
Cc1nnc2n1-c1sc3c(c1[C@H](c1ccccc1Cl)NC2)C[C@H](C(=O)N[C@@H]1CCC(F)(F)C1)C3 [Example 16]	> 118 µg/mL	1.4 nM
Cc1nnc2n1-c1sc3c(c1[C@H](c1ccccc1Cl)NC2)C[C@H](C(=O)N1CC2(CCCO2)C1)C3 [Example 22]	> 112 µg/mL	5.3 nM
Cc1nnc2n1-c1sc3c(c1[C@H](c1ccccc1)NC2)C[C@@H](C(=O)N1CCOCC1)C3 [Example 77]	–	> 1000 nM
CCc1nnc2n1-c1sc3c(c1[C@H](c1ccccc1Cl)NC2)C[C@@H](C(=O)N1CCOCC1)C3 [Example 70]	–	> 1000 nM
Cc1nnc2n1-c1sc3c(c1C(c1ccccc1C(F)(F)F)NC2)CC(C(=O)N1CCOCC1)C3 (centres unmarked) [Example 56, 3-Methyl-13-(morpholine-4-carbonyl)-9-[2-(trifluoromethyl)phenyl]-16-thia-2,4,5,8-tetraazatetracyclo[8.6.0.0^2,6.0^11,15]-hexadeca-1(10),3,5,11(15)-tetraene]	> 126 µg/mL	–
Cc1nnc2n1-c1sc3c(c1C(c1ccccc1CO)NC2)CC(C(=O)N1CCOCC1)C3 (racemic) [Example 60, {2-[3-Methyl-13-(morpholine-4-carbonyl)-16-thia-2,4,5,8-tetraazatetracyclo[8.6.0.0^2,6.0^11,15]hexadeca-1(10),3,5,11(15)-tetraen-9-yl]phenyl}methanol]	–	> 322 nM
Cc1nnc2n1-c1sc3c(c1C(c1ccc(Cl)cc1)NC2)CC(C(=O)N1CCOCC1)C3 (centres unmarked) [Example 52, 9-(4-Chlorophenyl)-3-methyl-13-(morpholine-4-carbonyl)-16-thia-2,4,5,8-tetraazatetracyclo[8.6.0.0^2,6.0^11,15]hexadeca-1(10),3,5,11(15)-tetraene]	–	283 nM
Cc1nnc2n1-c1sc3c(c1[C@@H](c1ccccc1)NC2)C[C@H](C(=O)N1CCOCC1)C3 [Example 78]	–	> 1000 nM
Cc1nnc2n1-c1sc3c(c1C(c1cc(F)cc(F)c1)NC2)CC(C(=O)N1CCOCC1)C3 (centres unmarked) [Example 58, 9-(3,5-Difluorophenyl)-3-methyl-13-(morpholine-4-carbonyl)-16-thia-2,4,5,8-tetraazatetracyclo[8.6.0.0^2,6.0^11,15]-hexadeca-1(10),3,5,11(15)-tetraene]	> 118 µg/mL	–
Cc1nnc2n1-c1sc3c(c1[C@@H](c1ccccc1)NC2)C[C@@H](C(=O)N1CCOCC1)C3 [Example 75]	–	> 568 nM
